SMILES strings stand for the structures. Starred links: 1 amine or outer side, 2 acyl side, 3 side chain; linkers in the order of their positions; H or OH if unused. Non-standard residues stand in square brackets, D forms with d. Residues, ends and D or L forms follow the SMILES beside them. Groups on a side chain read outwards from the residue. *: point of attachment. X1 = COc1cc2c(cc1-c1cccc(N*)c1)-c1c(c(C(=O)N3CCOCC3(C)C)nn1-c1cc(Cl)cc(Cl)c1)CO2; DOTA = O=C(O)CN1CCN(CC(=O)O)CCN(CC(=O)*)CCN(CC(=O)O)CC1; Suc = O=C(CCC(=O)[*:2])[*:1]

This is an account of results in patent publication US20260137819A1 (Radionetics Oncology, Inc., priority 2022, published 2026).

The target of this assay is T1, human follicle-stimulating hormone receptor (FSHR) (Homo sapiens, UniProt P23945).
T1 construct: host or cells: CHO-K1
T1 sequence (P23945 18-695): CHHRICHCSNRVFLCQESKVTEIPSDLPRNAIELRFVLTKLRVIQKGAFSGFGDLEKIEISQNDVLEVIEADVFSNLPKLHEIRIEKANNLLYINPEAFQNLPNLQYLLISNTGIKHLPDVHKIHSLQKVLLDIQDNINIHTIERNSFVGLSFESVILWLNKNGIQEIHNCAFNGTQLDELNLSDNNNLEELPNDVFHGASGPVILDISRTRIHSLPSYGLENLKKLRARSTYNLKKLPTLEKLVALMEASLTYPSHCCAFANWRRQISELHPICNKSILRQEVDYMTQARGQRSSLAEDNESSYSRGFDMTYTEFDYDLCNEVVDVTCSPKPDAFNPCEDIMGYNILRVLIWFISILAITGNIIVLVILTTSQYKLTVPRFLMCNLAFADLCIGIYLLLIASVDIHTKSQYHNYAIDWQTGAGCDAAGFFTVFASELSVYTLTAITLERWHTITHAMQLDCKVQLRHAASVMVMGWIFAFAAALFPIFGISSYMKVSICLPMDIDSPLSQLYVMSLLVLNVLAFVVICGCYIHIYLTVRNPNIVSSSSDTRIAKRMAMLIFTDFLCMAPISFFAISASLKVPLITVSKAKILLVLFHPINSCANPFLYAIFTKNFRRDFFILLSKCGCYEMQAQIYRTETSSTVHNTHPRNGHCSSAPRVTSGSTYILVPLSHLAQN
The assay can be described thus: Measurement of agonist cAMP production by activation of human FSHR. The following applies: CHO-K1 human FSHR cells, 30 minutes at 37° C., HTRF cAMP kit; read-out: hFSHR Agonist cAMP EC50. It is filed as cell-based. In short, it runs like this: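 cAMP output was measured by HTRF after 30 min at 37 °C agonist exposure (0–10,000 nM final) in stably FSHR-transfected CHO-K1 cells. Lysate cAMP was read off a standard curve and fitted to obtain half-maximal EC50.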
(In general: Cyclic AMP is a second messenger, typically raised through Gs and lowered through Gi signalling.)
As to `COc1cc2c(cc1-c1cncc(OCCCNC(=O)[C@@H](CCCNC(=N)N)NC(=O)CCNC(=O)CN3CCN(CC(=O)O)CCN(CC(=O)O)CCN(CC(=O)O)CC3)c1)-c1c(c(C(=O)N3CCCN(C(=O)C4CCC4)CC3)nn1-c1cccs1)CO2` [Compound 78, (R)-2,2′,2″-(10-(2-((3-((1-((3-((5-(3-(4-(cyclobutanecarbonyl)-1,4-diazepane-1carbonyl)-7-methoxy-1-(thiophen-2-yl)-1,4-dihydrochromeno|4,3-c|pyrazol-8-yl)pyridin-3-yl)oxy)propyl)amino)-5-guanidino-1-oxopentan-2-yl)amino)-3-oxopropyl)amino)-2-oxoethyl)-1,4,7,10-tetraazacyclododecane-1,4,7-triyl)triacetic acid--2,2,2-trifluoroacetic acid (1/1)], the EC50 – broadly, the concentration needed to bring the measured effect to its halfway point – was under 10 nM.
To `COc1cc2c(cc1-c1cncc(NC(=O)CCOCCOCCOCCOCCNC(=O)[C@H](CS(=O)(=O)O)NC(=O)CN3CCN(CC(=O)O)CCN(CC(=O)O)CCN(CC(=O)O)CC3)c1)-c1c(c(C(=O)N3CCOCC3(C)C)nn1-c1cc(Cl)cc(Cl)c1)CO2` [Compound 80] belongs 10 to 100 nM; to `COc1cc2c(cc1-c1cncc(NC(=O)CCCNC(=O)[C@@H](CCCNC(=N)N)NC(=O)CCNC(=O)CN3CCN(CC(=O)O)CCN(CC(=O)O)CCN(CC(=O)O)CC3)c1)-c1c(c(C(=O)N3CCOCC3(C)C)nn1-c1cc(Cl)cc(Cl)c1)CO2` [Compound 81, (R)-2,2′,2″-(10-(2-((3-((1-((4-((5-(1-(3,5-dichlorophenyl)-3-(3,3dimethylmorpholine-4-carbonyl)-7-methoxy-1,4-dihydrochromeno|4,3-clpyrazol-8-yl)pyridin-3-yl)amino)-4-oxobutyl)amino)-5-guanidino-1-oxopentan-2-yl)amino)-3-oxopropyl)amino)-2-oxoethyl)-1,4,7,10-tetraazacyclododecane-1,4,7-triyl)triacetic acid--2,2,2-trifluoroacetic acid (1/1)], under 10 nM.
Consider `COc1cc2c(cc1-c1cccc(NC(=O)CCC(=O)NCCCC[C@@H](NC(=O)[C@@H](CCC(=O)O)NC(=O)[C@@H](CCCNC(=N)N)NC(=O)[C@@H](C)NC(=O)CN3CCN(CC(=O)O)CCN(CC(=O)O)CCN(CC(=O)O)CC3)C(=O)N[C@H](CCCNC(=N)N)C(=O)N[C@H](CCC(=O)O)C(=O)N[C@H](C)C(N)=O)c1)-c1c(c(C(=O)N3CCOCC3(C)C)nn1-c1cc(Cl)cc(Cl)c1)CO2` [Compound 83, 2,2′,2″-(10-((4R,7R,10R,13R,16R,19R,22R)-23-amino-10,19-bis(2carboxyethyl)-13-(4-(4-((3-(1-(3,5-dichlorophenyl)-3-(3,3-dimethylmorpholine-4-carbonyl)-7-methoxy-1,4-dihydrochromeno|4,3-c|pyrazol-8-yl)phenyl)amino)-4-oxobutanamido)butyl)-7,16-bis(3-guanidinopropyl)-4,22-dimethyl-2,5,8,11,14,17,20,23-octaoxo-3,6,9,12,15,18,21-heptaazatricosyl)-1,4,7,10-tetraazacyclododecane-1,4,7-triyl)triacetic acid] ({DOTA}-[dA][dR][dE][dK]([Suc-X1])[dR][dE][dA]-NH2), for which the 50% effective concentration (EC50) was in the range of 10 to 100 nM.
Turning to `COc1cc2c(cc1-c1cccc(NC(=O)CCC(=O)NCCCC[C@@H](NC(=O)[C@@H](CCC(=O)O)NC(=O)[C@@H](CCCNC(=N)N)NC(=O)[C@@H](CCC(=O)O)NC(=O)[C@@H](CCCNC(=N)N)NC(=O)[C@@H](C)NC(=O)CN3CCN(CC(=O)O)CCN(CC(=O)O)CCN(CC(=O)O)CC3)C(=O)N[C@H](C)C(N)=O)c1)-c1c(c(C(=O)N3CCOCC3(C)C)nn1-c1cc(Cl)cc(Cl)c1)CO2` [Compound 84, 2,2′,2″-(10-((4R,7R,10R,13R,16R,19R)-19-(((R)-1-amino-1-oxopropan-2yl)carbamoyl)-10,16-bis(2-carboxyethyl)-28-((3-(1-(3,5-dichlorophenyl)-3-(3,3-dimethylmorpholine-4-carbonyl)-7-methoxy-1,4-dihydrochromeno|4,3-clpyrazol-8-yl)phenyl)amino)-7,13-bis(3-guanidinopropyl)-4-methyl-2,5,8,11,14,17,25,28-octaoxo-3,6,9,12,15,18,24-heptaazaoctacosyl)-1,4,7,10-tetraazacyclododecane-1,4,7-triyl)triacetic acid] ({DOTA}-[dA][dR][dE][dR][dE][dK]([Suc-X1])[dA]-NH2), the EC50 fell in the range of 10 to 100 nM.
The result for `COc1cc2c(cc1-c1cccc(NC(=O)CCC(=O)NCCCC[C@@H](NC(=O)[C@@H](CO)NC(=O)[C@@H](CC(N)=O)NC(=O)[C@@H](CO)NC(=O)[C@@H](CC(N)=O)NC(=O)[C@@H](C)NC(=O)CN3CCN(CC(=O)O)CCN(CC(=O)O)CCN(CC(=O)O)CC3)C(=O)N[C@H](C)C(N)=O)c1)-c1c(c(C(=O)N3CCOCC3(C)C)nn1-c1cc(Cl)cc(Cl)c1)CO2` [Compound 85] ({DOTA}-[dA][dN][dS][dN][dS][dK]([Suc-X1])[dA]-NH2) reads 10 to 100 nM; that for `COc1cc2c(cc1-c1cccc(NC(=O)CCC(=O)NCCCC[C@@H](NC(=O)[C@@H](C)NC(=O)[C@@H](CCC(=O)O)NC(=O)[C@@H](C)NC(=O)CN3CCN(CC(=O)O)CCN(CC(=O)O)CCN(CC(=O)O)CC3)C(=O)N[C@H](C)C(=O)N[C@H](CCC(=O)O)C(=O)N[C@H](C)C(N)=O)c1)-c1c(c(C(=O)N3CCOCC3(C)C)nn1-c1cc(Cl)cc(Cl)c1)CO2` [Compound 86, (4R,7R,10R,13R,16R)-4-(((R)-1-amino-1-oxopropan-2-yl)carbamoyl)-10-(4-(4((3-(1-(3,5-dichlorophenyl)-3-(3,3-dimethylmorpholine-4-carbonyl)-7-methoxy-1,4-dihydrochromeno|4,3-clpyrazol-8-yl)phenyl)amino)-4-oxobutanamido)butyl)-7,13-dimethyl-6,9,12,15-tetraoxo-16-((R)-2-(2-(4,7,10-tris(carboxymethyl)-1,4,7,10-tetraazacyclododecan-1-yl)acetamido)propanamido)-5,8,11,14-tetraazanonadecanedioic acid] ({DOTA}-[dA][dE][dA][dK]([Suc-X1])[dA][dE][dA]-NH2), 10 to 100 nM; that for `COc1cc2c(cc1-c1cccc(NC(=O)CCC(=O)NCCCC[C@@H](NC(=O)[C@@H](C)NC(=O)CN3CCN(CC(=O)O)CCN(CC(=O)O)CCN(CC(=O)O)CC3)C(=O)N[C@H](CCC(=O)O)C(=O)N[C@H](CCC(=O)O)C(=O)N[C@H](CCC(=O)O)C(=O)N[C@H](CCC(=O)O)C(=O)N[C@H](C)C(N)=O)c1)-c1c(c(C(=O)N3CCOCC3(C)C)nn1-c1cc(Cl)cc(Cl)c1)CO2` [Compound 87, 2,2′,2″-(10-((4R,7R,10R,13R,16R,19R,22R)-23-amino-10,13,16,19-tetrakis(2carboxyethyl)-7-(4-(4-((3-(1-(3,5-dichlorophenyl)-3-(3,3-dimethylmorpholine-4-carbonyl)-7-methoxy-1,4-dihydrochromeno|4,3-c|pyrazol-8-yl)phenyl)amino)-4-oxobutanamido)butyl)-4,22-dimethyl-2,5,8,11,14,17,20,23-octaoxo-3,6,9,12,15,18,21-heptaazatricosyl)-1,4,7,10-tetraazacyclododecane-1,4,7-triyl)triacetic acid] ({DOTA}-[dA][dK]([Suc-X1])[dE][dE][dE][dE][dA]-NH2), 10 to 100 nM.
`COc1cc2c(cc1-c1cccc(NC(=O)CCC(=O)NCCCC[C@@H](NC(=O)[C@@H](CCC(=O)O)NC(=O)[C@@H](CCC(=O)O)NC(=O)[C@@H](C)NC(=O)CN3CCN(CC(=O)O)CCN(CC(=O)O)CCN(CC(=O)O)CC3)C(=O)N[C@H](CCC(=O)O)C(=O)N[C@H](CCC(=O)O)C(=O)N[C@H](C)C(N)=O)c1)-c1c(c(C(=O)N3CCOCC3(C)C)nn1-c1cc(Cl)cc(Cl)c1)CO2` [Compound 88] ({DOTA}-[dA][dE][dE][dK]([Suc-X1])[dE][dE][dA]-NH2): the EC50 was 10 to 100 nM.
On to `COc1cc2c(cc1-c1cccc(NC(=O)CCC(=O)NCCCC[C@@H](NC(=O)[C@@H](CCC(=O)O)NC(=O)[C@@H](CCCNC(=N)N)NC(=O)[C@@H](C)NC(=O)CN3CCN(CC(=O)O)CCN(CC(=O)O)CCN(CC(=O)O)CC3)C(=O)N[C@H](CCCNC(=N)N)C(=O)N[C@H](CCCNC(=N)N)C(=O)N[C@H](C)C(N)=O)c1)-c1c(c(C(=O)N3CCOCC3(C)C)nn1-c1cc(Cl)cc(Cl)c1)CO2` [Compound 89] ({DOTA}-[dA][dR][dE][dK]([Suc-X1])[dR][dR][dA]-NH2), for which the concentration giving a half-maximal response (EC50) fell in the range of 10 to 100 nM.
